Test system: U2OS cells transiently overexpressing alpha-synuclein
Test: U2OS transient overexpression induced cytotoxicity assay (ATP content, CellTiter-Glow)
Type: cell-based, human
Conditions: 72 hours post transfection
Protocol: U2OS (Sigma-Aldrich), a human bone osteosarcoma epithelial cell line, is regularly maintained in McCoy's 5A medium (ATCC) supplemented with 10% FBS (ThermoFisher) between passage 11-21 and sub -cultured twice a week for the assay.
On the day of experiment, cells are about 80% confluence and trypsinized using 0.25% trypsin-EDTA (ThermoFisher Inc.) for 5 minutes at 37 c. Based on a ratio of 2 ug DNA/2e5 cells, required cells are spun down at 800 rpm for 5 minutes at room temperature. Cells are then re-suspended in SE solution (Lonza Inc.) at a density of 2e4 cells/μl. Nucleofection is performed using 4D-Nucleofector™ System (Lonza Inc.) under program code CM130. Cells are allowed to recover in the cuvette at room temperature for 10-15 minutes before further handling. Pre-warmed medium is added and cells suspension is thoroughly but gently mixed before plating. Cells are seeded at 2e4 cells/100 µl/well into 96 well PLD-coated white plate (Corning) using customized Viaflow program (Integra Biosciences). Serial dilution of drugs is carried out in DMSO. Drug solution is prepared at 6× fold, 20 ul of which is added to cells 4 hours after transfection. The final DMSO concentration is 0.3%. Microclimate lid (Labcyte) is strongly recommended to reduce evaporation and variation. Seventy-two hours post transfection, cells are lysed using CellTiter-Glow (Promega) and ATP content is determined using a luminescence plate reader (Perkin Elmer).
% Maximum fold rescue at each concentration is calculated as follows: […]
FK506 (tacrolimus), a macrolide calcineurin inhibitor, is used as reference compound in the assay.
% Rescue (normalized by max fold rescue of FK506)=(% Fold^αSyn drug-100)*100/(% Max fold^αSyn FK506-100).

Cc1nn(C)c2cc(-c3noc(C4CCN(C(=O)CNC(=O)c5ccccc5)CC4)n3)ccc12 [Example 40, N-(2-(4-(3-(1,3-dimethyl-1H-indazol-6-yl)-1,2,4-oxadiazol-5-yl)piperidin-1-yl)-2-oxoethyl)benzamide]
% Rescue (normalized by FK506 max rescue) (0.01 μM): 107% | % Rescue (normalized by FK506 max rescue) (0.1 μM): 137% | % Rescue (normalized by FK506 max rescue) (0.3 μM): 105% | % Rescue (normalized by FK506 max rescue) (1 μM): 77%

CCOc1ccc(-c2noc(C3CCN(C(=O)CNC(=O)c4ccccc4)CC3)n2)cc1OC [Example 155, N-(2-(4-(3-(4-ethoxy-3-methoxyphenyl)-1,2,4-oxadiazol-5-yl)piperidin-1-yl)-2-oxoethyl)benzamide]
% Rescue (normalized by FK506 max rescue) (0.01 μM): −23% | % Rescue (normalized by FK506 max rescue) (0.1 μM): 83% | % Rescue (normalized by FK506 max rescue) (0.3 μM): 44% | % Rescue (normalized by FK506 max rescue) (1 μM): 10%
